Test results reported in PubChem BioAssay (NCI).
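GI50 is the concentration that inhibits growth by half. At the TGI there is no net growth.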

Key:
Experiment in all cases: NCI anticancer screen, dose series, 384-well format
SF-268 CNS = test system: SF-268 CNS
ACHN renal = test system: ACHN renal
UACC-62 melanoma = test system: UACC-62 melanoma
SK-MEL-28 melanoma = test system: SK-MEL-28 melanoma
MDA-MB-231 breast = test system: MDA-MB-231 breast
MCF7 breast = test system: MCF7 breast
HL-60(TB) leukemia = test system: HL-60(TB) leukemia
IGROV1 ovarian = test system: IGROV1 ovarian
A498 renal = test system: A498 renal
COLO 205 colon = test system: COLO 205 colon
NCI-H226 lung = test system: NCI-H226 lung
EKVX NSCLC = test system: EKVX NSCLC
MDA-MB-468 breast = test system: MDA-MB-468 breast
OVCAR-8 ovarian = test system: OVCAR-8 ovarian
NCI-H522 lung = test system: NCI-H522 lung
NCI-H23 lung = test system: NCI-H23 lung
SW-620 colon = test system: SW-620 colon
HCT-116 colon = test system: HCT-116 colon
NCI-H460 NSCLC = test system: NCI-H460 NSCLC
LOX IMVI melanoma = test system: LOX IMVI melanoma
HOP-92 NSCLC = test system: HOP-92 NSCLC
786-0 renal = test system: 786-0 renal
CAKI-1 renal = test system: CAKI-1 renal
RXF 393 renal = test system: RXF 393 renal
HOP-62 NSCLC = test system: HOP-62 NSCLC
U251 glioblastoma = test system: U251 glioblastoma
DU-145 prostate = test system: DU-145 prostate
HS 578T breast = test system: HS 578T breast
SR leukemia = test system: SR leukemia
PC-3 prostate = test system: PC-3 prostate
MOLT-4 leukemia = test system: MOLT-4 leukemia
SNB-75 CNS = test system: SNB-75 CNS
RPMI-8226 leukemia = test system: RPMI-8226 leukemia
UO-31 renal = test system: UO-31 renal
A549 NSCLC = test system: A549 NSCLC
SF-539 CNS = test system: SF-539 CNS
M14 melanoma = test system: M14 melanoma
BT-549 breast = test system: BT-549 breast
SN12C renal = test system: SN12C renal
SF-295 CNS = test system: SF-295 CNS
OVCAR-3 ovarian = test system: OVCAR-3 ovarian
OVCAR-4 ovarian = test system: OVCAR-4 ovarian
T-47D breast = test system: T-47D breast
NCI-H322M lung = test system: NCI-H322M lung
HT29 colon = test system: HT29 colon
KM12 colon = test system: KM12 colon
MDA-MB-435 melanoma = test system: MDA-MB-435 melanoma
NCI/ADR-RES ovarian = test system: NCI/ADR-RES ovarian
HCC-2998 colon = test system: HCC-2998 colon
CCRF-CEM leukemia = test system: CCRF-CEM leukemia
UACC-257 melanoma = test system: UACC-257 melanoma
HCT-15 colon = test system: HCT-15 colon
SNB-19 CNS = test system: SNB-19 CNS
K-562 leukemia = test system: K-562 leukemia
SK-MEL-5 melanoma = test system: SK-MEL-5 melanoma
MALME-3M melanoma = test system: MALME-3M melanoma
TK-10 renal = test system: TK-10 renal
SK-OV-3 ovarian = test system: SK-OV-3 ovarian

## C=CC(=O)Nc1cccc(Nc2nc(Nc3ccc(OCCOC)cc3)ncc2F)c1
SF-268 CNS
  GI50: 2.34 µM
  TGI: 10.5 µM
ACHN renal
  GI50: 1.01 µM
  TGI: 3.51 µM
UACC-62 melanoma
  GI50: 1.52 µM
  TGI: 12.8 µM
SK-MEL-28 melanoma
  GI50: 9.82 µM
  TGI: 21.6 µM
MDA-MB-231 breast
  GI50: 2.3 µM
  TGI: 14.7 µM
MCF7 breast
  GI50: 3.1 µM
  TGI: 14.8 µM
HL-60(TB) leukemia
  GI50: 1.21 µM
  TGI: 2.64 µM
IGROV1 ovarian
  GI50: 1 µM
  TGI: 2.28 µM
A498 renal
  GI50: 0.493 µM
  TGI: 1.93 µM
COLO 205 colon
  GI50: 5.33 µM
  TGI: 16.7 µM
NCI-H226 lung
  GI50: 1 µM
  TGI: 5.79 µM
EKVX NSCLC
  GI50: 2.06 µM
  TGI: 9.06 µM
MDA-MB-468 breast
  GI50: 0.562 µM
  TGI: 1.76 µM
OVCAR-8 ovarian
  GI50: 2.51 µM
  TGI: 8.72 µM
NCI-H522 lung
  GI50: 1.48 µM
  TGI: 4.37 µM
NCI-H23 lung
  GI50: 2.42 µM
  TGI: 12.9 µM
SW-620 colon
  GI50: 1.84 µM
  TGI: 4.16 µM
HCT-116 colon
  GI50: 2.5 µM
  TGI: 12.7 µM
NCI-H460 NSCLC
  GI50: 2.02 µM
  TGI: 10.3 µM
LOX IMVI melanoma
  GI50: 2.19 µM
  TGI: 6.05 µM
HOP-92 NSCLC
  GI50: 1.82 µM
  TGI: 9.64 µM
786-0 renal
  GI50: 1.68 µM
  TGI: 6.51 µM
CAKI-1 renal
  GI50: 0.602 µM
  TGI: 2.08 µM
RXF 393 renal
  GI50: 0.867 µM
  TGI: 3.26 µM
HOP-62 NSCLC
  GI50: 2.9 µM
  TGI: 11.1 µM
U251 glioblastoma
  GI50: 2.86 µM
  TGI: 13.1 µM
DU-145 prostate
  GI50: 2.21 µM
  TGI: 13.5 µM
HS 578T breast
  GI50: 1.05 µM
  TGI: 2.85 µM
SR leukemia
  GI50: 0.933 µM
  TGI: 2.66 µM
PC-3 prostate
  GI50: 2.81 µM
  TGI: 12.6 µM
MOLT-4 leukemia
  GI50: 1.47 µM
  TGI: 2.84 µM
SNB-75 CNS
  GI50: 1.1 µM
  TGI: 2.82 µM
RPMI-8226 leukemia
  GI50: 1.01 µM
  TGI: 2.99 µM
UO-31 renal
  GI50: 1.17 µM
  TGI: 3.39 µM
A549 NSCLC
  GI50: 2.88 µM
  TGI: 11.2 µM
SF-539 CNS
  GI50: 1.48 µM
  TGI: 3.26 µM
M14 melanoma
  GI50: 1.71 µM
  TGI: 14.7 µM
BT-549 breast
  GI50: 0.802 µM
  TGI: 2.84 µM
SN12C renal
  GI50: 1.28 µM
  TGI: 4.07 µM
SF-295 CNS
  GI50: 4.9 µM
  TGI: 17.1 µM
OVCAR-3 ovarian
  GI50: 1.22 µM
  TGI: 4.74 µM
OVCAR-4 ovarian
  GI50: 10.3 µM
  TGI: 22.1 µM
T-47D breast
  GI50: 2.49 µM
  TGI: 13.9 µM
NCI-H322M lung
  GI50: 1.63 µM
  TGI: 8.82 µM
HT29 colon
  GI50: 2.98 µM
  TGI: 11.6 µM
KM12 colon
  GI50: 3.53 µM
  TGI: 14.3 µM
MDA-MB-435 melanoma
  GI50: 5.33 µM
  TGI: 17.6 µM
NCI/ADR-RES ovarian
  GI50: 2.44 µM
  TGI: 6.32 µM
HCC-2998 colon
  GI50: 2.55 µM
  TGI: 13.7 µM
CCRF-CEM leukemia
  GI50: 1.62 µM
  TGI: 3.39 µM
UACC-257 melanoma
  GI50: 6.67 µM
  TGI: 19.3 µM
HCT-15 colon
  GI50: 1.97 µM
  TGI: 12.9 µM
SNB-19 CNS
  GI50: 4.01 µM
  TGI: 14.6 µM
K-562 leukemia
  GI50: 3.73 µM
  TGI: 13.6 µM
SK-MEL-5 melanoma
  GI50: 4.78 µM
  TGI: 18 µM
MALME-3M melanoma
  GI50: 3.64 µM
  TGI: 16.8 µM
TK-10 renal
  GI50: 1.31 µM
  TGI: 3.09 µM
SK-OV-3 ovarian
  GI50: 0.755 µM
  TGI: 3.02 µM
